Some test systems named below: CAKI-1; CCRF-CEM; HCT-116; HCT-15; HL-60; HOP-62; IGROV-1; KM12; MOLT-4; OVCAR-3; RPMI-8226; SF-268; SF-295; SK-MEL-2; SK-MEL-5; SN12C; SNB-19; SW-620; UACC-257; UACC-62.
Experiment in all cases: NCI-60 cell line screen, 48 h

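Growth conditions: 96-well plates. Treatment: test compound, 48 hours, 5 concentrations. Analysis: linear interpolation between bracketing concentrations; unreached endpoints set to highest concentration. At the GI50, growth is halved.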 Active and inactive are the calls of the source. Rule as the data show it: active = GI50 up to about 1.1 µM and inactive = higher.

`CC12CCC3C(CCC4(O)C=CCCC34C=O)C1(O)CC(O)C2c1ccc(=O)oc1` (stereo not given): the GI50 is 0.0578 µM (active) in the test with CAKI-1; 0.0526 µM (active) in the test with CCRF-CEM; 0.0573 µM (active) in the test with HCT-116; 0.0658 µM with HCT-15; 0.0665 µM (active) in the test with HL-60; 0.0556 µM (active) in the test with HOP-62. Moreover, the GI50 in the test on IGROV-1 is 0.0681 µM (active); in the test with KM12, 0.0792 µM (active); in the test on MOLT-4, < 0.05 µM (active); in the test on OVCAR-3 it was 0.0625 µM (active); in the test on RPMI-8226, 0.0697 µM (active); in the test on SF-268, < 0.05 µM (active). The GI50 with SF-295 is 0.0551 µM (active); in the test with SK-MEL-2, 0.111 µM (active); with SK-MEL-5 it was 0.0565 µM (active); in the test with SN12C, 0.0519 µM (active); in the test on SNB-19, 0.127 µM (active); in the test on SW-620, 0.0741 µM (active). The GI50 with UACC-257 is 0.104 µM (active); in the test on UACC-62, 0.076 µM (active).
Regarding `CC(C)=CCc1c(O)ccc2c1OC1c3ccc(O)c(CC=C(C)C)c3OCC21` (stereo not given), the GI50 in the test on CAKI-1 is 9.02 µM (inactive); with CCRF-CEM, 6.62 µM (inactive); with HCT-116, 5.12 µM (inactive); with HCT-15, 3.96 µM; in the test with HL-60, 4.32 µM (inactive); with HOP-62, 9.84 µM (inactive). The GI50 in the test with IGROV-1 was 10.3 µM (inactive); in the test on KM12, 10.2 µM (inactive); with MOLT-4 it was 3.14 µM (inactive); in the test on OVCAR-3, 13.6 µM (inactive); in the test on RPMI-8226 it was 3.28 µM (inactive); in the test on SF-268, 11.2 µM (inactive). Besides, the GI50 in the test with SF-295 was 11.6 µM (inactive); in the test on SK-MEL-2 it was 18 µM (inactive); in the test with SK-MEL-5 it was 5.98 µM (inactive); with SN12C it was 14 µM (inactive); in the test on SNB-19, 13.6 µM (inactive); in the test on SW-620, 6.79 µM (inactive). The GI50 was 13.8 µM (inactive) in the test on UACC-257 and 5.64 µM (inactive) with UACC-62.
In the case of `Cc1c(C2=NN=C(/N=N/c3c(O)cccc3O)/C2=C/c2ccccc2)c(=O)n(-c2ccccc2)n1C`, the GI50 was > 100 µM (inactive) in the test with CAKI-1; > 100 µM (inactive) in the test on CCRF-CEM; > 100 µM (inactive) in the test on HCT-116; more than 100 µM in the test on HCT-15; > 100 µM (inactive) with HL-60; > 100 µM (inactive) with HOP-62. Also, the GI50 in the test with IGROV-1, with KM12, in the test on MOLT-4, in the test on OVCAR-3, with RPMI-8226 and in the test with SF-268 was > 100 µM (inactive) throughout. Moreover, the GI50 with SF-295, with SK-MEL-2, in the test on SK-MEL-5, in the test on SN12C, in the test on SNB-19 and with SW-620 was > 100 µM (inactive) in each case. Further, the GI50 in the test with UACC-257 and in the test with UACC-62 was > 100 µM (inactive) each time.
For `COc1cc(CCN(C)C)cc(OC)c1OC`, the GI50 is > 100 µM (inactive) with CAKI-1; > 100 µM (inactive) in the test with CCRF-CEM; > 100 µM (inactive) in the test with HCT-116; more than 100 µM in the test on HCT-15; > 100 µM (inactive) in the test on HL-60; > 100 µM (inactive) in the test on HOP-62. The GI50 with IGROV-1, in the test with KM12, in the test with MOLT-4, in the test on OVCAR-3, in the test on RPMI-8226 and in the test with SF-268 was > 100 µM (inactive) throughout. The GI50 in the test on SF-295, in the test with SK-MEL-2, with SK-MEL-5, in the test on SN12C, with SNB-19 and in the test on SW-620 was > 100 µM (inactive) in each case. Also, the GI50 in the test with UACC-257 and with UACC-62 was > 100 µM (inactive) in each case.

These data come from ChEMBL document CHEMBL1201862, “PubChem BioAssay data set” (2004).
